# *1 amine or outer side, *2 acyl side, *3 side chain or, on linkers, in order; H or OH if unused. Where a SMILES comes first, the peptide text is derived from it. Side-chain parts run from the residue outwards. [ ]: non-standard residue; d: D form. The star is where a group is joined. C18 diacid = O=C(O)CCCCCCCCCCCCCCCCC(=O)*; γGlu = O=C(O)[C@H](CCC(=O)[*:2])N[*:1]; Nva = CCC[C@H](N)C(=O)O; AEEA = NCCOCCOCC(=O)O; Aib = CC(C)(N)C(=O)O
# What was measured:
# human CRF2a receptor = molecular target: T1, human CRF2a receptor (Homo sapiens, UniProt Q13324); experiment: Activity at human CRF2a receptor, cAMP functional assay in TeloHEAC cells; assay type: cell-based; details: TeloHEAC cells stably expressing human CRF2a receptor, relative to urocortin 2 (100 nM = 100%)
# T1 construct: expressed in transfected cells; host or cells: TeloHEAC cells
# T1 sequence (Q13324 1-411): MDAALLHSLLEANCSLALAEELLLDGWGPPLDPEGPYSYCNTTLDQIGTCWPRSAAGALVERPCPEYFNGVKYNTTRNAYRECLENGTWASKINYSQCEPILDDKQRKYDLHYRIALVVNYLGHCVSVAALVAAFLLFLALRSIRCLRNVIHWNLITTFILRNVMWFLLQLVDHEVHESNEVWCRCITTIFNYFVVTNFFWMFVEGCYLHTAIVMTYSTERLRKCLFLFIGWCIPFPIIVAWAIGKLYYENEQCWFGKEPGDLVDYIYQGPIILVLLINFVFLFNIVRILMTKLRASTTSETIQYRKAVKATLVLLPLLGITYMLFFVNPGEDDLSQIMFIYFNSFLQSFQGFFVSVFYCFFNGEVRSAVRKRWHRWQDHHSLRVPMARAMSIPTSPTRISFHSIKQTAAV
# Outline: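 cAMP accumulation was measured by HTRF 665/620 nm ratio after 30 min at 37° C compound exposure (16 twofold dilutions) of CRF2a-expressing TeloHEAC cells, 10000/well, in HEPES-buffered HBSS plus IBMX. Activity was normalised to urocortin 2 at 100 nM (100%), and EC50 was the concentration giving half-maximal activation.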
# CFR1R receptor = molecular target: T2, CFR1R receptor (Homo sapiens, UniProt P34998); experiment: Activity at anti-target CFR1R receptor, cAMP assay in CRF1R-overexpression CHO-K1 cells; assay type: cell-based; details: 100% = Sauvagine at 100 nM; for EC50: cAMP
# T2 construct: host or cells: CHO-K1 (clone 2)
# T2 sequence (P34998 24-415): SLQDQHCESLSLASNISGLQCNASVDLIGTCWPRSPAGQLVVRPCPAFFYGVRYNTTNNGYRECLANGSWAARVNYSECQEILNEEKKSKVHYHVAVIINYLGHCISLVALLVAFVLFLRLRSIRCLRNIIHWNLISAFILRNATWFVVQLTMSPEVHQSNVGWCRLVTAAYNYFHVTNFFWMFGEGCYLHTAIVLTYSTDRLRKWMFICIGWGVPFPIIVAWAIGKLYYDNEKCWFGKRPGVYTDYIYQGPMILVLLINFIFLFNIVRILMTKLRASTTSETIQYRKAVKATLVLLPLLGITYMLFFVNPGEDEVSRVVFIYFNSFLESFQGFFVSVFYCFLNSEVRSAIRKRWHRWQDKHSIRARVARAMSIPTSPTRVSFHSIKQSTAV
# Outline: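 Signal is normalised to 100 nM Sauvagine, taken as 100% activation, in clone 2 cells plated at a final 4000 cells/well from frozen stocks.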
EC50 (human CRF2a receptor) [nM],Emax (% I) (CFR1R receptor),EC50 (CFR1R receptor) [nM],SMILES
6.07,0,> 250,CC[C@H](C)[C@H](NC(=O)[C@H](CCC(N)=O)NC(=O)C(C)(C)NC(=O)[C@H](CC(N)=O)NC(=O)[C@@H](NC(=O)[C@H](CCC(=O)O)NC(=O)[C@H](C)NC(=O)[C@H](CCC(N)=O)NC(=O)[C@H](CCC(=O)O)NC(=O)[C@H](CCCNC(=N)N)NC(=O)[C@H](CCC(N)=O)NC(=O)[C@H](CCCCN)NC(=O)[C@H](CCCCN)NC(=O)[C@H](CCC(N)=O)NC(=O)[C@H](CCCCN)NC(=O)[C@H](CCC(=O)O)NC(=O)[C@H](CCC(N)=O)NC(=O)[C@H](CCC(=O)O)NC(=O)[C@H](CC(C)C)NC(=O)[C@H](CC(C)C)NC(=O)[C@@H](NC(=O)[C@H](CCCCN)NC(=O)[C@H](CCCCNC(=O)COCCOCCNC(=O)COCCOCCNC(=O)CC[C@H](NC(=O)CCCCCCCCCCCCCCCCC(=O)O)C(=O)O)NC(=O)[C@H](CC(C)C)NC(=O)[C@H](CCCCN)NC(=O)[C@@H](NC(=O)[C@@H]1CCCN1C(=O)[C@H](NC(=O)[C@H](CC(=O)O)NC(=O)[C@H](CC(C)C)NC(=O)[C@H](CO)NC(=O)[C@H](CC(C)C)NC(=O)[C@@H](NC(C)=O)C(C)C)C(C)C)[C@@H](C)CC)[C@@H](C)CC)[C@@H](C)O)C(=O)N[C@@H](CC(C)C)C(=O)N[C@@H](C)C(=O)N[C@@H](CCC(N)=O)C(=O)N[C@H](C(N)=O)C(C)C [compound 99] (Ac-VLSLD[dV]PIKLK([AEEA-AEEA-γGlu-C18 diacid])KILLEQEKQKKQREQAETN[Aib]QILAQV-NH2)
1.74,0,> 250,CC[C@H](C)[C@H](NC(=O)[C@H](CCC(N)=O)NC(=O)[C@H](C)NC(=O)[C@H](CC(N)=O)NC(=O)[C@@H](NC(=O)[C@H](CCC(=O)O)NC(=O)[C@H](C)NC(=O)[C@H](CCC(N)=O)NC(=O)[C@H](CCC(=O)O)NC(=O)[C@H](CCCNC(=N)N)NC(=O)[C@H](CCC(N)=O)NC(=O)[C@H](CCCCN)NC(=O)[C@H](CCCCN)NC(=O)[C@H](CCC(N)=O)NC(=O)[C@H](CCCCN)NC(=O)[C@H](CCC(=O)O)NC(=O)[C@H](CCC(N)=O)NC(=O)[C@H](CCC(=O)O)NC(=O)[C@H](CC(C)C)NC(=O)[C@H](CC(C)C)NC(=O)[C@@H](NC(=O)[C@H](CCCCN)NC(=O)[C@H](CCCCNC(=O)COCCOCCNC(=O)COCCOCCNC(=O)CC[C@H](NC(=O)CCCCCCCCCCCCCCCCC(=O)O)C(=O)O)NC(=O)[C@H](CC(C)C)NC(=O)[C@H](CCCCN)NC(=O)[C@@H](NC(=O)[C@@H]1CCCN1C(=O)[C@H](NC(=O)[C@H](CC(=O)O)NC(=O)[C@H](CC(C)C)NC(=O)[C@H](CO)NC(=O)[C@H](CC(C)C)NC(=O)[C@@H](NC(C)=O)C(C)C)C(C)C)[C@@H](C)CC)[C@@H](C)CC)[C@@H](C)O)C(=O)N[C@@H](CC(C)C)C(=O)N[C@@H](C)C(=O)N[C@@H](CCC(N)=O)C(=O)N[C@H](C(N)=O)C(C)C [compound 101] (Ac-VLSLD[dV]PIKLK([AEEA-AEEA-γGlu-C18 diacid])KILLEQEKQKKQREQAETNAQILAQV-NH2)
17.6,−5,> 250,CC[C@H](C)[C@H](NC(C)=O)C(=O)N[C@H](C(=O)N[C@@H](CC(C)C)C(=O)N[C@@H](CO)C(=O)N[C@@H](CC(C)C)C(=O)N[C@@H](CC(=O)O)C(=O)N[C@H](C(=O)N1CCC[C@H]1C(=O)N[C@H](C(=O)N[C@@H](CCCCN)C(=O)N[C@@H](CC(C)C)C(=O)N[C@@H](CCCCNC(=O)COCCOCCNC(=O)COCCOCCNC(=O)CC[C@H](NC(=O)CCCCCCCCCCCCCCCCC(=O)O)C(=O)O)C(=O)N[C@@H](CCCCN)C(=O)N[C@H](C(=O)N[C@@H](CC(C)C)C(=O)N[C@@H](CC(C)C)C(=O)N[C@@H](CCC(=O)O)C(=O)N[C@@H](CCC(N)=O)C(=O)N[C@@H](CCC(=O)O)C(=O)N[C@@H](CCCCN)C(=O)N[C@@H](CCC(N)=O)C(=O)N[C@@H](CCCCN)C(=O)N[C@@H](CCCCN)C(=O)N[C@@H](CCC(N)=O)C(=O)N[C@@H](CCCNC(=N)N)C(=O)N[C@@H](CCC(=O)O)C(=O)N[C@@H](CCC(N)=O)C(=O)N[C@@H](C)C(=O)N[C@@H](CCC(=O)O)C(=O)N[C@H](C(=O)N[C@@H](CC(N)=O)C(=O)N[C@H](C(=O)N[C@@H](CCC(N)=O)C(=O)N[C@H](C(=O)N[C@@H](CC(C)C)C(=O)N[C@@H](C)C(=O)N[C@@H](CCC(N)=O)C(=O)N[C@H](C(N)=O)C(C)C)[C@@H](C)CC)C(C)C)[C@@H](C)O)[C@@H](C)CC)[C@@H](C)CC)C(C)C)C(C)C [compound 102] (Ac-IVLSLDVPIKLK([AEEA-AEEA-γGlu-C18 diacid])KILLEQEKQKKQREQAETNVQILAQV-NH2)
3.09,3,> 250,CC[C@H](C)[C@H](NC(C)=O)C(=O)N[C@H](C(=O)N[C@@H](CC(C)C)C(=O)N[C@@H](CO)C(=O)N[C@@H](CC(C)C)C(=O)N[C@@H](CC(=O)O)C(=O)N[C@@H](C(=O)N1CCC[C@H]1C(=O)N[C@H](C(=O)N[C@@H](CCCCN)C(=O)N[C@@H](CC(C)C)C(=O)N[C@@H](CCCCNC(=O)COCCOCCNC(=O)COCCOCCNC(=O)CC[C@H](NC(=O)CCCCCCCCCCCCCCCCC(=O)O)C(=O)O)C(=O)N[C@@H](CCCCN)C(=O)N[C@H](C(=O)N[C@@H](CC(C)C)C(=O)N[C@@H](CC(C)C)C(=O)N[C@@H](CCC(=O)O)C(=O)N[C@@H](CCC(N)=O)C(=O)N[C@@H](CCC(=O)O)C(=O)N[C@@H](CCCCN)C(=O)N[C@@H](CCC(N)=O)C(=O)N[C@@H](CCCCN)C(=O)N[C@@H](CCCCN)C(=O)N[C@@H](CCC(N)=O)C(=O)N[C@@H](CCCNC(=N)N)C(=O)N[C@@H](CCC(=O)O)C(=O)N[C@@H](CCC(N)=O)C(=O)N[C@@H](C)C(=O)N[C@@H](CCC(=O)O)C(=O)N[C@H](C(=O)N[C@@H](CC(N)=O)C(=O)N[C@H](C(=O)N[C@@H](CCC(N)=O)C(=O)N[C@H](C(=O)N[C@@H](CC(C)C)C(=O)N[C@@H](C)C(=O)N[C@@H](CCC(N)=O)C(=O)N[C@H](C(N)=O)C(C)C)[C@@H](C)CC)C(C)C)[C@@H](C)O)[C@@H](C)CC)[C@@H](C)CC)C(C)C)C(C)C [compound 103] (Ac-IVLSLD[dV]PIKLK([AEEA-AEEA-γGlu-C18 diacid])KILLEQEKQKKQREQAETNVQILAQV-NH2)
0.87,10,> 250,CCC[C@H](NC(=O)[C@H](CC(N)=O)NC(=O)[C@@H](NC(=O)[C@H](CCC(=O)O)NC(=O)[C@H](C)NC(=O)[C@H](CCC(N)=O)NC(=O)[C@H](CCC(=O)O)NC(=O)[C@H](CCCNC(=N)N)NC(=O)[C@H](CCC(N)=O)NC(=O)[C@H](CCCCN)NC(=O)[C@H](CCCCN)NC(=O)[C@H](CCC(N)=O)NC(=O)[C@H](CCCCN)NC(=O)[C@H](CCC(=O)O)NC(=O)[C@H](CCC(N)=O)NC(=O)[C@H](CCC(=O)O)NC(=O)[C@H](CC(C)C)NC(=O)[C@H](CC(C)C)NC(=O)[C@@H](NC(=O)[C@H](CCCCN)NC(=O)[C@H](CCCCNC(=O)COCCOCCNC(=O)COCCOCCNC(=O)CC[C@H](NC(=O)CCCCCCCCCCCCCCCCC(=O)O)C(=O)O)NC(=O)[C@H](CC(C)C)NC(=O)[C@H](CCCCN)NC(=O)[C@@H](NC(=O)[C@@H]1CCCN1C(=O)[C@H](NC(=O)[C@H](CC(=O)O)NC(=O)[C@H](CC(C)C)NC(=O)[C@H](CO)NC(=O)[C@H](CC(C)C)NC(=O)[C@@H](NC(=O)[C@@H](NC(C)=O)[C@@H](C)CC)C(C)C)C(C)C)[C@@H](C)CC)[C@@H](C)CC)[C@@H](C)O)C(=O)N[C@@H](CCC(N)=O)C(=O)N[C@H](C(=O)N[C@@H](CC(C)C)C(=O)N[C@@H](C)C(=O)N[C@@H](CCC(N)=O)C(=O)N[C@H](C(N)=O)C(C)C)[C@@H](C)CC [compound 105] (Ac-IVLSLD[dV]PIKLK([AEEA-AEEA-γGlu-C18 diacid])KILLEQEKQKKQREQAETN[Nva]QILAQV-NH2)
